Test results as given in patent US20250388592A1 (REMYND N.V., priority 2022, published 2025).

System: M17_3TAU(P301L) cells
Assay: TAU-induced cytotoxicity (LDH) in the neuroblastoma tauopathy model
Format: cell-based
Conditions: Homo sapiens, 168 h, inhibition of TAU-induced toxicity, 7 days retinoic acid differentiation, LDH readout
Excerpt: A TAU expression plasmid was constructed by sub-cloning the cDNA encoding for human TAU-P301L protein, wherein proline at position 301 is substituted by a leucine residue, into mammalian expression vector pcDNA3.1 resulting in the plasmid pcDNA3.1-TAUP301L. Plasmids pcDNA3.1 and pcDNA3.1-TAU P301L were transfected into human neuroblastoma cells (BE-M17; ATCC No. CRL-2267™) using lipofectamine reagent and subsequently, independent clonal cell lines with the plasmids stably integrated into the genome were selected by antibiotic resistance selection (Geneticin (G418)), resulting in cell lines M17.pcDNA3 and M17_3TAUP301L. Expression of the TAUP301 L gene in the M17_3TAUP301 L cells was confirmed by Western blot analysis.
Differentiation of the cells with RA leads to phosphorylation and subsequent aggregation of TAU, inducing a tauopathy in these cells. Cytotoxicity of cells was measured by quantification of lactate dehydrogenase (LDH) levels. In dead cells LDH is leaked out of the cells into the medium due to a loss of plasma-membrane integrity.
Briefly, 3 days preceding the experiment pre-cultures of M17.pcDNA3 and M17_3TAU(P301L) cells were prepared, starting from a stock culture, at a density of 50.000-100.000 cells/cm2 in detection medium (Optimem Reduced Serum without phenol red (Gibco, Cat. 31985-047) supplemented with 1% fetal calf serum (FCS), 1 mM sodium pyruvate, 1×non-essential amino acids (NEAA), 500 μg/ml G418 and 0.5×antibiotic/antimycotic (ABAM)). At the day of the experiment these precultures were diluted to ˜[…] in detection medium without FCS and 60 μL of this suspension is dispensed per well into a 96-well microtiter plate. After 3 hours of incubation at 37° C./5% C02 an equal volume of detection medium containing 2.5 μM RA was added and subsequently incubated for 7 days at 37° C./5% CO2. After 7 days, LDH activity was determined using the Promega Cytotox 96 Non-Radioactive cytotoxicity assay (Cat. G1780), according the manufacturer's instructions. Cytotoxicity is measured as the ratio of LDH increase in the supernatant divided by the LDH increase in the total cell suspension (sum of the LDH measured in cells and supernatant). Toxicity was determined after 7 days of differentiation with retinoic acid in M17_3TAU(P301 L) cells compared to M17.pcDNA3 cells.
The M17_3TAU(P301L) cell line makes it possible to assess the ability of novel compounds to inhibit TAU-induced cytotoxicity. […] Compounds were tested for their ability to hamper TAU-induced toxicity at different concentrations, ranging from low non-effective concentrations to high potent concentrations. Afterwards, the dose-dependent inhibition curve was used to calculate their EC50 (Table 3B).

| Structure (SMILES) | EC50 [nM] |
| --- | --- |
| COC(=O)c1ccc(CN2CC3(C2)CN(C(=O)Cc2ccc(Cl)cc2)C3)cc1 [Cpd B035, methyl 4-((6-(2-(4-chlorophenyl)acetyl)-2,6-diazaspiro[3.3]heptan-2-yl)methyl)benzoate] | 6.06 |
| COc1cc(OC)nc(CN2CC3(C2)CN(C(=O)Cc2ccc(Cl)cc2)C3)n1 [Cpd B036, 2-(4-chlorophenyl)-1-(6-((4,6-dimethoxypyrimidin-2-yl)methyl)-2,6-diazaspiro[3.3]heptan-2-yl)ethanone] | 17.6 |
| CC(c1cccc(C(F)(F)F)c1)N1CC2(CN(C(=O)Cc3ccc(Cl)cc3)C2)C1 (stereo not drawn) [Cpd B037, 2-(4-chlorophenyl)-1-(6-(1-(3-(trifluoromethyl)phenyl)ethyl)-2,6-diazaspiro[3.3]heptan-2-yl)ethanone] | 5.41 |
| Cc1cccc(CN2CC3(C2)CN(C(=O)Cc2ccc(Cl)cc2)C3)n1 [Cpd B038, 2-(4-chlorophenyl)-1-(6-((6-methylpyridin-2-yl)methyl)-2,6-diazaspiro[3.3]heptan-2-yl)ethanone] | 13.9 |
| O=C(Cc1ccc(Cl)cc1)N1CC2(CN(Cc3ncc(Cl)cn3)C2)C1 [Cpd B039, 2-(4-chlorophenyl)-1-(6-((5-chloropyrimidin-2-yl)methyl)-2,6-diazaspiro[3.3]heptan-2-yl)ethanone] | 56.3 |
| O=C(Cc1ccc(Cl)cc1)N1CC2(CN(Cc3ccc(C(F)(F)F)o3)C2)C1 [Cpd B040, 2-(4-Chloro-phenyl)-1-[6-(5-trifluoromethyl-furan-2-ylmethyl)-2,6-diaza-spiro[3.3]hept-2-yl]-ethanone] | 40.4 |
| Cc1cc(CN2CC3(C2)CN(C(=O)Cc2ccc(Cl)cc2)C3)no1 [Cpd B041, 2-(4-chlorophenyl)-1-(6-((5-methylisoxazol-3-yl)methyl)-2,6-diazaspiro[3.3]heptan-2-yl)ethanone] | 141 |
| CCCN1CC2(C1)CN(C(=O)Cc1ccc(Cl)cc1)C2 [Cpd B042, 2-(4-chlorophenyl)-1-(6-propyl-2,6-diazaspiro[3.3]heptan-2-yl)ethanone] | 32.8 |
| O=C(Cc1ccc(Cl)cc1)N1CC2(CN(Cc3cscn3)C2)C1 [Cpd B043, 2-(4-chlorophenyl)-1-(6-(thiazol-4-ylmethyl)-2,6-diazaspiro[3.3]heptan-2-yl)ethanone] | 79.5 |
| O=C(Cc1ccc(Cl)cc1)N1CC2(CN(CCc3cccc(C(F)(F)F)c3)C2)C1 [Cpd B044, 2-(4-chlorophenyl)-1-(6-(3-(trifluoromethyl)phenethyl)-2,6-diazaspiro[3.3]heptan-2-yl)ethanone] | 16.1 |
| O=C(Cc1ccc(Cl)cc1)N1CC2(CN(CCc3cccc(F)c3)C2)C1 [Cpd B045, 2-(4-chlorophenyl)-1-(6-(3-fluorophenethyl)-2,6-diazaspiro[3.3]heptan-2-yl)ethanone] | 11.6 |
| COc1ccc(CCN2CC3(C2)CN(C(=O)Cc2ccc(Cl)cc2)C3)cc1 [Cpd B046, 2-(4-chlorophenyl)-1-(6-(4-methoxyphenethyl)-2,6-diazaspiro[3.3]heptan-2-yl)ethanone] | 4.11 |
| Cc1ccc(CCN2CC3(C2)CN(C(=O)Cc2ccc(Cl)cc2)C3)cc1 [Cpd B047, 2-(4-chlorophenyl)-1-(6-(4-methylphenethyl)-2,6-diazaspiro[3.3]heptan-2-yl)ethanone] | 13.6 |
| O=C(Cc1ccc(Cl)cc1)N1CC2(CN(CCc3ccc(F)cc3)C2)C1 [Cpd B048, 2-(4-chlorophenyl)-1-(6-(4-fluorophenethyl)-2,6-diazaspiro[3.3]heptan-2-yl)ethanone] | 8.85 |
| Cc1cccc(CCN2CC3(C2)CN(C(=O)Cc2ccc(Cl)cc2)C3)c1 [Cpd B049, 2-(4-chlorophenyl)-1-(6-(3-methylphenethyl)-2,6-diazaspiro[3.3]heptan-2-yl)ethanone] | 12.4 |
| CC(C)(C(=O)c1ccccc1)N1CC2(CN(C(=O)Cc3ccc(Cl)cc3)C2)C1 [Cpd B050, 2-(6-(2-(4-chlorophenyl)acetyl)-2,6-diazaspiro[3.3]heptan-2-yl)-2-methyl-1-phenylpropan-1-one] | 72.8 |
| Cc1cccc(CCN2CC3(C2)CN(C(=O)Cc2ccc(Cl)cc2)C3)n1 [Cpd B051, 2-(4-chlorophenyl)-1-(6-(2-(6-methylpyridin-2-yl)ethyl)-2,6-diazaspiro[3.3]heptan-2-yl)ethanone] | 30.7 |
| O=C(Cc1ccc(Cl)cc1)N1CC2(CN(CCc3ccccc3)C2)C1 [Cpd B052, 2-(4-chlorophenyl)-1-(6-phenethyl-2,6-diazaspiro[3.3]heptan-2-yl)ethanone] | 15.9 |

| Structure (SMILES) | EC50 [nM] |
| --- | --- |
| CC(C)CCN1CC2(C1)CN(C(=O)Cc1ccc(Cl)cc1)C2 [Cpd B053, 2-(4-chlorophenyl)-1-(6-isopentyl-2,6-diazaspiro[3.3]heptan-2-yl)ethanone] | 5.07 |
| CC(Cc1ccccc1)N1CC2(CN(C(=O)Cc3ccc(Cl)cc3)C2)C1 (stereo not drawn) [Cpd B054, 2-(4-chlorophenyl)-1-(6-(1-phenylpropan-2-yl)-2,6-diazaspiro[3.3]heptan-2-yl)ethanone] | 19.2 |
| O=C(Cc1ccc(Cl)cc1)N1CC2(CN(Cc3ccc(F)c(F)c3)C2)C1 [Cpd B055, 2-(4-chlorophenyl)-1-(6-(3,4-difluorobenzyl)-2,6-diazaspiro[3.3]heptan-2-yl)ethanone] | 5.13 |
| O=C(Cc1ccc(Cl)cc1)N1CC2(CN(CC3CCCCC3)C2)C1 [Cpd B056, 2-(4-chlorophenyl)-1-(6-(cyclohexylmethyl)-2,6-diazaspiro[3.3]heptan-2-yl)ethanone] | 1.44 |
| O=C(Cc1ccc(Cl)cc1)N1CC2(CN(CCC3CCCCC3)C2)C1 [Cpd B057, 2-(4-chlorophenyl)-1-(6-(2-cyclohexylethyl)-2,6-diazaspiro[3.3]heptan-2-yl)ethanone] | 1.58 |
| COc1ccccc1CCCN1CC2(C1)CN(C(=O)Cc1ccc(Cl)cc1)C2 [Cpd B058, 2-(4-chlorophenyl)-1-(6-(3-(2-methoxyphenyl)propyl)-2,6-diazaspiro[3.3]heptan-2-yl)ethanone] | 1.72 |
| COc1ccc(CCCN2CC3(C2)CN(C(=O)Cc2ccc(Cl)cc2)C3)cc1 [Cpd B059, 2-(4-chlorophenyl)-1-(6-(3-(4-methoxyphenyl)propyl)-2,6-diazaspiro[3.3]heptan-2-yl)ethanone] | 1.23 |
| COc1ccc(CCCN2CC3(C2)CN(C(=O)Cc2ccc(F)cc2)C3)cc1 [Cpd B060, 2-(4-Fluoro-phenyl)-1-{6-[3-(4-methoxy-phenyl)-propyl]-2,6-diaza-spiro[3.3]hept-2-yl}-ethanone] | 0.81 |
| O=C(Cc1ccc(Cl)cc1)N1CC2(CN(CCc3ccccc3Cl)C2)C1 [Cpd B062, 1-(6-(2-chlorophenethyl)-2,6-diazaspiro[3.3]heptan-2-yl)-2-(4-chlorophenyl)ethanone] | 1.08 |
| O=C(Cc1ccc(F)cc1)N1CC2(CN(CCc3ccccc3Cl)C2)C1 [Cpd B063, 1-{6-[2-(2-Chloro-phenyl)-ethyl]-2,6-diaza-spiro[3.3]hept-2-yl}-2-(4-fluoro-phenyl)-ethanone] | 3.12 |
| COc1cc(OC)nc(CN2CC3(C2)CN(C(=O)Cc2ccc(F)cc2)C3)n1 [Cpd B064, 1-[6-(4,6-Dimethoxy-pyrimidin-2-ylmethyl)-2,6-diaza-spiro[3.3]hept-2-yl]-2-(4-fluoro-phenyl)-ethanone] | 32.8 |
| CC(c1ccccc1)N1CC2(CN(C(=O)Cc3ccc(Cl)cc3)C2)C1 (stereo not drawn) [Cpd B065, 2-(4-chlorophenyl)-1-(6-(1-phenylethyl)-2,6-diazaspiro[3.3]heptan-2-yl)ethanone] | 3.23 |
| O=C(Cc1ccc(F)cc1)NC1CC2(CC(NCc3ccccc3)C2)C1 (stereo not drawn) [Cpd B066, N-(6-(benzylamino)spiro[3.3]heptan-2-yl)-2-(4-fluorophenyl)acetamide] | 130 |
| CN(Cc1ccccc1)C1CC2(CC(NC(=O)Cc3ccc(F)cc3)C2)C1 (stereo not drawn) [Cpd B067, N-(6-(benzyl(methyl)amino)spiro[3.3]heptan-2-yl)-2-(4-fluorophenyl)acetamide] | 3.54 |
| CN(Cc1ccccc1)C1CC2(CC(NC(=O)Cc3ccc(Cl)cc3)C2)C1 (stereo not drawn) [Cpd B068, N-(6-(benzyl(methyl)amino)spiro[3.3]heptan-2-yl)-2-(4-chlorophenyl)acetamide] | 13.4 |
| COc1cccc(CN2CC3(C2)CN(C(=O)COC2CCCCC2)C3)c1 [Cpd B070] | 54 |
| COc1cccc(CN2CC3(C2)CN(C(=O)CCC2CCCC2)C3)c1 [Cpd B071] | 2.96 |
| COc1cccc(CN2CC3(C2)CN(C(=O)CC2CCCCC2)C3)c1 [Cpd B073] | 5 |
